# Measured values taken from PMC7955072 (Nature Communications, 2021).
# Entries after “also recorded” stand apart in the source; their conditions may differ.
# Legend:
# ScIleRS del_KMSKS = ScIleRS del_KMSKS (Saccharomyces cerevisiae, UniProt P09436, DEL601-605/K608S/L607G); assay type: binding
# Protocol: (§1) Ligand binding usually stabilizes the protein during the thermal denaturation process, and tighter binding usually causes a larger positive shift in the protein melting temperature (Tm)[45]. […] The fluorescence intensity was recorded by a StepOnePlus Real-Time PCR instrument (Life Technologies), and the maximums of the first derivatives were determined to calculate Tm values. Each Tm value was an average of triple assays.
# ScIleRS W449A = ScIleRS W449A (Saccharomyces cerevisiae, UniProt P09436, W449A); assay type: binding
# Sequence of ScIleRS W449A (P09436 whole entry W449A): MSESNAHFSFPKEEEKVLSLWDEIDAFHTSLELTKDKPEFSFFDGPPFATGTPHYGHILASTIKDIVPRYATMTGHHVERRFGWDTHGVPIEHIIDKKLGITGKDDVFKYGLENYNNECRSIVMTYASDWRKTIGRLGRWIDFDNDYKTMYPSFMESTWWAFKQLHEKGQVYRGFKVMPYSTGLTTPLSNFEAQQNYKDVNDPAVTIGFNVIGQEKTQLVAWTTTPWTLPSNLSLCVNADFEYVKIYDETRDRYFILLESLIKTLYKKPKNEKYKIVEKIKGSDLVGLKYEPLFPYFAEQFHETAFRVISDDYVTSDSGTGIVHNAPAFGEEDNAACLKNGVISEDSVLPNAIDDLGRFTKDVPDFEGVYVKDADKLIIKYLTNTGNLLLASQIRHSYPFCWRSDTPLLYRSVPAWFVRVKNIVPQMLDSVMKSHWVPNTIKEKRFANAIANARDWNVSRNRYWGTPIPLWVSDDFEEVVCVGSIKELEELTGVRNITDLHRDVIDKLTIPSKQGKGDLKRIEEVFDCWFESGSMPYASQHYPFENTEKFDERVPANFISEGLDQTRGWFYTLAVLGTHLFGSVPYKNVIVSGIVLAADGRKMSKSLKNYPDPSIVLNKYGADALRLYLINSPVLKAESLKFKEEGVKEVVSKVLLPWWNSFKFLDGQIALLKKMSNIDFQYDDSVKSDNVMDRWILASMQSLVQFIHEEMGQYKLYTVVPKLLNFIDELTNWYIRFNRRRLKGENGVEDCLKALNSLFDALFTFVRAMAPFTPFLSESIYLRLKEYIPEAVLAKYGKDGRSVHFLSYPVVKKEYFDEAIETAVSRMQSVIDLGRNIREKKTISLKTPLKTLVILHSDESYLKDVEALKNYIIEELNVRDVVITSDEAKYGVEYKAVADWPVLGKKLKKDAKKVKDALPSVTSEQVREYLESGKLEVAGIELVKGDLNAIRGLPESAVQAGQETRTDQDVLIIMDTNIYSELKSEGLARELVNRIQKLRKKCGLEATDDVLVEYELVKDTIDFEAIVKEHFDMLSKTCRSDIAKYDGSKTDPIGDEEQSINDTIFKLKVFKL
# Protocol: as §1
# ScIleRS W402A = ScIleRS W402A (Saccharomyces cerevisiae, UniProt P09436, W402A); assay type: binding
# Sequence of ScIleRS W402A (P09436 whole entry W402A): as the sequence (P09436 whole entry W449A) above, with W402A, A449W counted along it
# Protocol: as §1
# ScIleRS R460A = ScIleRS R460A (Saccharomyces cerevisiae, UniProt P09436, R460A); assay type: binding
# Sequence of ScIleRS R460A (P09436 whole entry R460A): as the sequence (P09436 whole entry W449A) above, with A449W, R460A counted along it
# Protocol: as §1
# ScIleRS W456A = ScIleRS W456A (Saccharomyces cerevisiae, UniProt P09436, W456A); assay type: binding
# Sequence of ScIleRS W456A (P09436 whole entry W456A): as the sequence (P09436 whole entry W449A) above, with A449W, W456A counted along it
# Protocol: as §1
# ScIleRS T572A = ScIleRS T572A (Saccharomyces cerevisiae, UniProt P09436, T572A); assay type: binding
# Sequence of ScIleRS T572A (P09436 whole entry T572A): as the sequence (P09436 whole entry W449A) above, with A449W, T572A counted along it
# Protocol: as §1
# ScIleRS W529A = ScIleRS W529A (Saccharomyces cerevisiae, UniProt P09436, W529A); assay type: binding
# Sequence of ScIleRS W529A (P09436 whole entry W529A): as the sequence (P09436 whole entry W449A) above, with A449W, W529A counted along it
# Protocol: as §1
# ScIleRS V89A = ScIleRS V89A (Saccharomyces cerevisiae, UniProt P09436, V89A); assay type: binding
# Sequence of ScIleRS V89A (P09436 whole entry V89A): as the sequence (P09436 whole entry W449A) above, with V89A, A449W counted along it
# Protocol: as §1
# ScIleRS F48Y = ScIleRS F48Y (Saccharomyces cerevisiae, UniProt P09436, F48Y); assay type: binding
# Sequence of ScIleRS F48Y (P09436 whole entry F48Y): as the sequence (P09436 whole entry W449A) above, with F48Y, A449W counted along it
# Protocol: as §1
# ScIleRS R454A = ScIleRS R454A (Saccharomyces cerevisiae, UniProt P09436, R454A); assay type: binding
# Sequence of ScIleRS R454A (P09436 whole entry R454A): as the sequence (P09436 whole entry W449A) above, with A449W, R454A counted along it
# Protocol: as §1
# ScIleRS P90A = ScIleRS P90A (Saccharomyces cerevisiae, UniProt P09436, P90A); assay type: binding
# Sequence of ScIleRS P90A (P09436 whole entry P90A): as the sequence (P09436 whole entry W449A) above, with P90A, A449W counted along it
# Protocol: as §1
# ScIleRS D527A = ScIleRS D527A (Saccharomyces cerevisiae, UniProt P09436, D527A); assay type: binding
# Sequence of ScIleRS D527A (P09436 whole entry D527A): as the sequence (P09436 whole entry W449A) above, with A449W, D527A counted along it
# Protocol: as §1
# ScIleRS F48A = ScIleRS F48A (Saccharomyces cerevisiae, UniProt P09436, F48A); assay type: binding
# Sequence of ScIleRS F48A (P09436 whole entry F48A): as the sequence (P09436 whole entry W449A) above, with F48A, A449W counted along it
# Protocol: as §1
# ScIleRS F191A = ScIleRS F191A (Saccharomyces cerevisiae, UniProt P09436, F191A); assay type: binding
# Sequence of ScIleRS F191A (P09436 whole entry F191A): as the sequence (P09436 whole entry W449A) above, with F191A, A449W counted along it
# Protocol: as §1
# ScIleRS Y571A = ScIleRS Y571A (Saccharomyces cerevisiae, UniProt P09436, Y571A); assay type: binding
# Sequence of ScIleRS Y571A (P09436 whole entry Y571A): as the sequence (P09436 whole entry W449A) above, with A449W, Y571A counted along it
# Protocol: as §1
# ScIleRS R462A = ScIleRS R462A (Saccharomyces cerevisiae, UniProt P09436, R462A); assay type: binding
# Sequence of ScIleRS R462A (P09436 whole entry R462A): as the sequence (P09436 whole entry W449A) above, with A449W, R462A counted along it
# Protocol: as §1
# full-length ScIleRS = full-length ScIleRS (Saccharomyces cerevisiae, UniProt P09436); test: Fluorescence-based thermal shift assay (TSA), full-length ScIleRS wild-type; assay type: binding; conditions: for △Tm: Wild-type, difference between Tm with and without ligands; for increase of Tm value of ScIleRS: single ligand (50 μM RM-A, 2 mM L-isoleucine, 2 mM ATP or 50 μM Ile-AMS), Tm without ligand approximately 54 °C
# Sequence of full-length ScIleRS (P09436 whole entry): as the sequence (P09436 whole entry W449A) above, with A449W counted along it
# Protocol: as §1
# [1] = molecular target: C-terminal truncated ScIleRS (residues 1-984) (Saccharomyces cerevisiae, UniProt P09436); test: Fluorescence-based thermal shift assay (TSA), C-terminal truncated ScIleRS; assay type: binding; conditions: protein bound with copurified Ile-AMP
# Sequence of C-terminal truncated ScIleRS (residues 1-984) (P09436 1-984): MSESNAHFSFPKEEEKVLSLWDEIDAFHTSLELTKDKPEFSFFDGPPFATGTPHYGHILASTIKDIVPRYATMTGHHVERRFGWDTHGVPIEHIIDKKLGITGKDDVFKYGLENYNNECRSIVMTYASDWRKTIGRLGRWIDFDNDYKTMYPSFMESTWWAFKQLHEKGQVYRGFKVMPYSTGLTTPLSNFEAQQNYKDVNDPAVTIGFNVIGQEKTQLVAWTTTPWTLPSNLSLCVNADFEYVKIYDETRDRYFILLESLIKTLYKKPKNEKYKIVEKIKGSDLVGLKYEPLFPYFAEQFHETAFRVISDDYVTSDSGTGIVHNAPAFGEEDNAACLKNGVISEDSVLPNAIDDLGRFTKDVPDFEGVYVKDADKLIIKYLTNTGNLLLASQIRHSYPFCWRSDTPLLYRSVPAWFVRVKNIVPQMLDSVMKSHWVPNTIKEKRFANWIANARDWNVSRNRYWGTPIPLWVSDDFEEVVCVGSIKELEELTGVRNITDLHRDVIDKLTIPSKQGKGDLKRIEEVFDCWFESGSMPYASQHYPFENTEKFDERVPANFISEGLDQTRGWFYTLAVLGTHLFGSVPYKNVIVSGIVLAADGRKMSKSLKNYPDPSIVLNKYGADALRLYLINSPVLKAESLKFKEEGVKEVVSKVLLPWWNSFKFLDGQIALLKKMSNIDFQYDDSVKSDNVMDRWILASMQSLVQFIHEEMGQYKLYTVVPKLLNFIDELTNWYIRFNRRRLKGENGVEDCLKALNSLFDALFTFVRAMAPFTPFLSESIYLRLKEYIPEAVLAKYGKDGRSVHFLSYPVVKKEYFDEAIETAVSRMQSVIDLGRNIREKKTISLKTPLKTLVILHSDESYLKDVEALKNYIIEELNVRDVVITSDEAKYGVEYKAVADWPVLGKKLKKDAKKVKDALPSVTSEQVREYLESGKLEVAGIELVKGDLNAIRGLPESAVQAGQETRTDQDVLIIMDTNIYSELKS
# Protocol: The binding of RM-A to IleRS and the impact of intermediate analogue (Ile-AMS, MedChemExpress) or substrates on binding were evaluated by the fluorescence-based thermal shift assay (TSA). Ligand binding usually stabilizes the protein during the thermal denaturation process, and tighter binding usually causes a larger positive shift in the protein melting temperature (Tm)[45]. […]. The mixtures were incubated at 25 °C for 10 min and then heated from 25 °C to 95 °C at a rate of 1 °C/min. The fluorescence intensity was recorded by a StepOnePlus Real-Time PCR instrument (Life Technologies), and the maximums of the first derivatives were determined to calculate Tm values. Each Tm value was an average of triple assays.
# IleRS = conditions: cited from earlier work
# Sequence of ScIleRS del_KMSKS (P09436 other isoform, or with tags, fused parts or gaps DEL601-605/L607G/K608S): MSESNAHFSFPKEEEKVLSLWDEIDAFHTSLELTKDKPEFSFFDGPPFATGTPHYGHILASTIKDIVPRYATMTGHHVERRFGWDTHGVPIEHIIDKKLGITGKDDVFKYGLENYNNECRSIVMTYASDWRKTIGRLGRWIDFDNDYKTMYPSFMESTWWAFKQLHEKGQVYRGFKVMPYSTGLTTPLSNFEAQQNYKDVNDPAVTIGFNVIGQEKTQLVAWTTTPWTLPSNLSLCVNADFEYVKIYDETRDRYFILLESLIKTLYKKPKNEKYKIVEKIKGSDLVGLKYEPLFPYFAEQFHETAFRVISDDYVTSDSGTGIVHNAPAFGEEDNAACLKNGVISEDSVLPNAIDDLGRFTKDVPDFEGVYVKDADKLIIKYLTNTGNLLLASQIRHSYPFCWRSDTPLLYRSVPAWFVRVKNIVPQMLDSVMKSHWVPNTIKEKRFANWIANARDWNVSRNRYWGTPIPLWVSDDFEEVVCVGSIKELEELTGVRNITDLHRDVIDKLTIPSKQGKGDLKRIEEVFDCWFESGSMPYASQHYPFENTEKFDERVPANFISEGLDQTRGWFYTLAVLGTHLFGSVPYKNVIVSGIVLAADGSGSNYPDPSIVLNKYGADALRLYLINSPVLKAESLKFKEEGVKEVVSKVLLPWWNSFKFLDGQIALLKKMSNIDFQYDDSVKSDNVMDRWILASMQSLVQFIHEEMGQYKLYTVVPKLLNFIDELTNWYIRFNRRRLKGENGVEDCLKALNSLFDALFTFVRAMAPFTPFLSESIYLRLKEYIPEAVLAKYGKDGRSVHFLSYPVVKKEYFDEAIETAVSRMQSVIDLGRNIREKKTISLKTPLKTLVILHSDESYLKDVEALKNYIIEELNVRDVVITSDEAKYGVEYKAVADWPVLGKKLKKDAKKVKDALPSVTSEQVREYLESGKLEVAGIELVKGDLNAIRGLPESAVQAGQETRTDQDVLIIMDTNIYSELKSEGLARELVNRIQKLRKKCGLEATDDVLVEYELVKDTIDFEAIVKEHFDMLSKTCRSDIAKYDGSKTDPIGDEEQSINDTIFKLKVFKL
Compound,△Tm (ScIleRS del_KMSKS),△Tm (ScIleRS W449A),△Tm (ScIleRS W402A),△Tm (ScIleRS R460A),△Tm (ScIleRS W456A),△Tm (ScIleRS T572A),△Tm (ScIleRS W529A),△Tm (ScIleRS V89A),△Tm (ScIleRS F48Y),△Tm (ScIleRS R454A),△Tm (ScIleRS P90A),△Tm (ScIleRS D527A),△Tm (ScIleRS F48A),△Tm (ScIleRS F191A),△Tm (ScIleRS Y571A),△Tm (ScIleRS R462A),△Tm (full-length ScIleRS),increase of Tm value of ScIleRS (full-length ScIleRS),Tm value of C-terminal truncated ScIleRS [1],also measured
CC[C@H](C)[C@H](N)C(=O)O [L-isoleucine],8.5 °C,7.8 °C,6.9 °C,3.1 °C,0.7 °C,4.8 °C,1.9 °C,4.7 °C,4.4 °C,6.6 °C,6.4 °C,5.2 °C,0.2 °C,8.3 °C,4 °C,4 °C,7.9 °C,~8 °C,not improved,
Nc1ncnc2c1ncn2[C@@H]1O[C@H](COP(=O)(O)OP(=O)(O)OP(=O)(O)O)[C@@H](O)[C@H]1O [ATP],,,,,,,,,,,,,,,,,,approximately 4 °C,not improved,
"CC(/C=C/[C@H](O)[C@@H](C)/C=C/C(=O)O)=C\C[C@H]1O[C@@]2(CC[C@H](C)[C@H](/C=C/C(C)=C/C(=O)O)O2)CC[C@@H]1C [SF-A, Spirofungin A]",,,,,,,,,,,,,,,,,,,,inhibition of IleRS (IleRS): only weakly inhibit
CC[C@H](C)[C@H](N)C(=O)NS(=O)(=O)OC[C@H]1O[C@@H](n2cnc3c(N)ncnc32)[C@H](O)[C@@H]1O [Ile-AMS],20.2 °C,24.9 °C,24.2 °C,25.7 °C,18.8 °C,22.7 °C,18.4 °C,24.7 °C,21.6 °C,21.6 °C,22.1 °C,24.2 °C,12.5 °C,26.5 °C,24.6 °C,26 °C,23.4 °C,~23 °C,,
reveromycin T [RM-T],,,,,,,,,,,,,,,,,,,,inhibitory activity against IleRS compared with RM-A (IleRS): stronger inhibitory activity; also recorded: even higher inhibitory activity
